{
  "source": "patent US20220288197A1",
  "about": "“METHODS OF TREATING A SUBJECT WITH A CDC42-SPECIFIC INHIBITOR” (Children’s Hospital Medicai Center, priority 2019, published 2022)",
  "key": {"[1]": {"tested_on": "hepatitis B virus (HBV) core antigen", "experiment": "DNA vaccination response with pCI/C DNA encoding HBV core antigen", "assay_type": "in vivo, C57BL/6 mice", "conditions": "aged mice, 13 days after immunization, OLD Solvent vs. OLD CASIN, p<0.05, FIG. 5(B)", "description": "(§1) Briefly, 75 week-old C57BL/6 mice (referred to in the results as “Old”) and 12-16 week old mice (referred to in the results as “young”) were injected intraperitoneal (“IP”) every 24 hours for four days with a Cdc42-specific inhibitor (e.g., CASIN) at a dosage of interest (e.g., 25 mg/kg) or with solvent as a control group (referred to in the results as “Solvent”). On the fifth day, mice were treated with 5-fluorouracil (“5-FU”). Two methods of vaccination were investigated.\nFor DNA vaccination: 12 weeks after transplantation, recipient mice were immunized with pCI/C DNA encoding the hepatitis B virus (“HBV”) core antigen. FIG. 5(B) provides the results for DNA vaccination with the HBV core antigen 13 days after immunization along with an ovalbumin (“Ova”) specific immune response. The frequency of interferon gamma positive CD3^+CD8^+ T-cells was analyzed, which is an established surrogate measurement for the success of DNA vaccination protocols. […] In FIG. 5(C), splenic K^b/C93-100-dimer^+ CD8^+ T-cell frequencies were determined by flow cytometry 13 days post-immunization with the HBV core antigen. These T-cell frequencies are a direct measurement of antigen-specific T-cells."}, "[2]": {"experiment": "LC-MS/MS measurement of CASIN pharmacokinetics in mouse serum", "assay_type": "in vivo, C57BL/6 mice", "conditions": "for concentration at 3 h: female, C57BL/6, mouse, serum, intraperitoneal, 25 mg/kg", "description": "CASIN solution and IP treatment. CASIN was prepared fresh before injection by dissolving the drug directly in beta-cyclodextrin solution (Sigma #H5784). IP injections were performed in the morning, every 24 hours, for 4 consecutive days during week 75 of age of the mice. Control mice were injected with equal volume of the solvent. Serum for the cytokine array was prepared from the day 7 bleeding point. […] The same stock of CASIN was used for the entire study. CASIN was provided as lyophilized powder.\nLiquid Chromatography-Mass Spectrometry (LC-MS/MS) measurements of CASIN pharmacokinetics in mouse serum. A LC/MS/MS ion chromatography protocol was employed to measure serum CASIN concentration ranging 0.1-10 μM by comparing serum CASIN from i.p. injected mice at varying times with a standard curve derived by in vitro spiking of mouse serum with defined doses of CASIN. An Autosampler maximum recovery vials with caps (Waters), an UPLC-MS system (Waters Quattro Premier XE mass spectrometry with ACQUITY UPLC system), an Acquity BEH C18 UPLC column (2.1×75 mm, 1.7 μm) (Waters), and an Acquity BEH C18 UPLC guard column (Waters) were used. For LC gradient, solvent A contained acetonitrile/water (5/95) with 2 mM ammonium acetate and solvent B contained acetonitrile/water (90/10). The gradient mobile phase switched from 60% solvent A to 57% solvent A over 2 min, to 50% solvent A at 2.1 min, to 46% solvent A over 9.9 min, and then, after changing to 30% at 12.1 min, to 1% solvent A over 5.9 min, then to 60% solvent A at 18.1 min and this was held for 2 min. Column temperature was kept at 25° C. The capillary voltage was 3 KV for electrospray negative (ES-) mode, cone voltage is 45 V, collision 30 V, desolvation temperature, 350° C.; desolvation gas flow is 600 L/h; source temperature was 120° C.; and MRM transition m/z is 305.1->244.\n(§2) To determine that a short-term systemic treatment of aged animals with a Cdc42-specific inhibitor would regulate lifespan, CASIN was administered i.p. every 24 hours for 4 consecutive days to 75-week old female C57BL/6 mice (FIG. 1a). CASIN levels in serum were monitored via liquid chromatography-mass spectrometry (FIGS. 2a and 2b). A 50 mg/kg single dose resulted initially in a concentration of about 10 μM in serum (data not shown)."}, "[3]": {"experiment": "Toxicity, weight and peripheral blood counts in the lifespan study", "assay_type": "in vivo", "description": "(§3) Mice. Mice included in the study were female C57BL/6 and were obtained from the internal divisional stock (derived from C57BL/6j mice obtained from both The Jackson Laboratory and NIA/Charles River as well as from C57BL/6JRj mice from Janvier). For the longevity study described herein, 40 mice were randomly selected at 70 weeks of age. Mice were weighed and bled before the beginning of the treatment (day 0) and at day 7 and 35. […] Mice that needed to be euthanized because they were scored as “weak and about to die” according to our approved animal license protocol for evaluating mouse health status remained part of the dataset. Allocation to control or treated group was done randomly (20 mice each experimental group).\nFlow cytometry of Peripheral Blood (PB). PB cell immunostaining was performed according to standard procedures and samples were analyzed on a LSRII flow cytometer (BD Biosciences). For PB lineage analysis, the antibodies used were from eBioscience: anti-CD3ε (clone 145-2C11), anti-B220 (clone RA3-6B2), anti-Mac-1 (clone M1/70) and anti-Gr-1 (clone […]). Lineage FACS analysis data were plotted as the percentage of B220+, CD3+ and Myeloid (Gr-1+, Mac-1+ and Gr-1+Mac-1+) cells among total white blood cells. WBC (white blood cell), RBC (red blood cell), Ly (lymphocytes), NE (neutrophils), and Mo (monocyte) counts were generated by using the hemocytometer Hemavet 950, DREW SCIENTIFIC Inc, (FL 33014), USA.\n(§4) Accordingly, chronic toxicity issues from the administration of inhibitor was unlikely. […] Furthermore, CASIN treatment reversed Cdc42 activity in the aged mice cohort to an approximate level of activity seen in the young mice control cohort. Thus, CASIN treatment generally reverted Cdc42 activity levels in aged mice to the level existing in mice approximately 60 weeks younger in age.\n(§5) Cytokine array analyses were performed to investigate the extent to which aging-associated inflammatory cytokines in serum of aged mice were affected by CASIN treatment."}, "[4]": {"tested_on": "aging-associated inflammatory cytokines in serum", "experiment": "Cytokine array (Luminex) of serum of aged mice", "assay_type": "in vivo, C57BL/6 mice", "description": "CASIN solution and IP treatment. CASIN was prepared fresh before injection by dissolving the drug directly in beta-cyclodextrin solution (Sigma #H5784). IP injections were performed in the morning, every 24 hours, for 4 consecutive days during week 75 of age of the mice. Control mice were injected with equal volume of the solvent. Serum for the cytokine array was prepared from the day 7 bleeding point. Serum for mass spectrometry analysis of CASIN levels was prepared by bleeding an equal (for sex, strain, origin and age) cohort of mice 3 hours, 24 hours, and 48 hours after the end of the treatment. The same stock of CASIN was used for the entire study. CASIN was provided as lyophilized powder.\nCytokine array. Lumimex Method. Cytokine concentrations in the sample supernatants were determined by using Milliplex™ Multiplex kits (MilliporeSigma, Darmstadt, Germany) according to manufacturer's protocol. Briefly, in a 96 well black plate, 25 μL sample in duplicate was incubated with 25 μL antibody coated beads overnight at 4° C. on a plate shaker. Plates were then washed 2 times using BioTek 405 TS (BioTek, Winooski, Vt.) and 25 μL of secondary antibody was added and incubated at room temperature for 1 hour while shaking. Finally, 25 μL of streptavidin-RPE was added directly to the secondary antibody and incubated for 30 minutes at room temperature with shaking. Plates were then washed 2 more times and 150 μL of sheath fluid was added. Plates were shaken for 5 minutes and then read using luminex technology on the Milliplex Analyzer (MilliporeSigma, Darmstadt, Germany). Concentrations were calculated from standard curves using recombinant proteins and expressed in pg/ml.\nas §5"}, "[5]": {"tested_on": "75-week old female C57BL/6 mice", "experiment": "Lifespan (longevity) study of aged mice, 4-day i.p. treatment", "assay_type": "in vivo", "description": "as §3\nMedian lifespan, 95% confidence intervals and survival analysis were calculated by Prism GraphPad v7.0c. Of note, the median lifespan of the control group matched data obtained for C57BL/6j mice in a large set of lifespan studies of diverse inbred mouse strains. […]\nas §2, with “A 50 mg/kg single dose resulted initially in a concentration of about 10 μM in serum (data not shown).” left out"}, "[6]": {"tested_on": "inactivated influenza virus (H3N2)", "experiment": "Viral vaccination response, inactivated influenza virus, antibody titer by ELISA", "assay_type": "in vivo, C57BL/6 mice", "conditions": "aged mice, 21 days after the second vaccination, immunized 12 weeks post CASIN treatment, FIG. 5(D)", "description": "as §1\nFor viral vaccination, animals were immunized twice at an interval of 4 weeks with inactivated influenza virus (10 μg H3N2+10 μL Al(OH)3) i.m. 12 weeks post CASIN treatment. The antibody titer was determined in serum 21 days after the second vaccination using ELISA technology. n=at least 3 per experiment."}, "Cdc42": {"molecular_target": "T1, Cdc42 (Mus musculus, UniProt P60766)", "T1 construct": "lineage depleted BM cells (10^6) were lysed in a Mg^2+ lysis/wash buffer; from tissue; host or cells: lineage-depleted bone marrow cells of C57BL/6 mice treated in vivo with CASIN", "T1 sequence (P60766 whole entry, the tested form may be a part)": "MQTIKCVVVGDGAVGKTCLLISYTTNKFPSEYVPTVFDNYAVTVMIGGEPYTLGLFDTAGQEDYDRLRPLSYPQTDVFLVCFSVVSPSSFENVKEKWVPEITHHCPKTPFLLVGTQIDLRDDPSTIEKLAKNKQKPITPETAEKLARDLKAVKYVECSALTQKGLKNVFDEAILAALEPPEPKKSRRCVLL", "experiment": "Cdc42-GTPase effector domain pull-down assay in bone marrow cells after systemic in vivo treatment", "parameters": "species or system C57BL/6 mice", "conditions": "FIG. 1c", "description": "Cdc42-GTPase effector domain pull-down assays. Relative levels of GTP-bound Cdc42 were determined by an effector pull-down assay. Briefly, lineage depleted BM cells (10^6) were lysed in a Mg^2+ lysis/wash buffer (Upstate cell signaling solutions) containing 10% glycerol, 25 mM sodium fluoride, 1 mM sodium orthovanadate and a protease inhibitor cocktail (Roche Diagnostics). Samples were incubated with PAK-1 binding domain/agarose beads and bound (activated) as well as unbound (non-activated) Cdc42 fractions were probed by immunoblotting with an anti-Cdc42 antibody (Millipore, rabbit polyclonal). Activated protein was normalized to total protein and/or 3-actin (Sigma) and the relative amount was quantified by densitometry.\nas §4"}},
  "note": "Entries after “also recorded” stand apart in the source; their conditions may differ. Read-outs that look alike come from different tables or passages of the source.",
  "data": [
    {"smiles": "OCCNC1CCCc2c1[nH]c1ccc(-c3ccccc3)cc21", "note": "(stereo not shown) [CASIN]", "values": [
      {"measurement": "frequency of interferon gamma positive CD3+CD8+ T-cells", "setting": "[1]", "value": "statistically significant increase in immune response"},
      {"measurement": "CASIN remaining in serum at the end of the 48 hour window", "setting": "[2]; 25 mg/kg i.p. for 4 consecutive days, 48 hours", "value": "approximately no CASIN remaining in serum"},
      {"measurement": "CASIN concentration in serum", "setting": "[2]; 50 mg/kg single dose, initially (data not shown)", "value": "about 10 μM"},
      {"measurement": "concentration at 3 h", "setting": "[2]; 25 mg/kg i.p. for 4 consecutive days, 48 hour window of analysis, 3 hours, read-out: concentration of CASIN in serum after 3 hours", "value": "~2", "unit": "µM"},
      {"measurement": "concentration at 3 h", "setting": "[2]; 25 mg/kg i.p., old mice, 3 hours after injection, FIG. 2b, read-out: levels of CASIN in serum 3 hours after injection", "value": "~5", "unit": "µM"},
      {"measurement": "red blood cell count (RBC)", "setting": "[3]; day 7 and day 35, FIG. 2e", "value": "did not change"},
      {"measurement": "white blood cell count (WBC)", "setting": "[3]; day 7 and day 35, FIG. 2d", "value": "did not change"},
      {"measurement": "frequency and count of myeloid and lymphoid cells in peripheral blood (PB)", "setting": "[3]; day 7 and day 35, FIGS. 2f-k", "value": "did not change"},
      {"measurement": "weight", "setting": "[3]; day 7 and day 35 after beginning of treatment, FIG. 2c", "value": "did not change"},
      {"measurement": "acute toxicity", "setting": "[3]; four days of consecutive i.p. injections, 25 mg/kg, aged mice", "value": "did not induce acute toxicity"},
      {"measurement": "deaths of treated mice after CASIN injections", "setting": "[3]; within 4 weeks after injections", "value": "none of the treated mice died"},
      {"measurement": "GM-CSF concentration in serum", "setting": "[4]; day 7, FIG. 3", "value": "trend to be reduced"},
      {"measurement": "IL-2 concentration in serum", "setting": "[4]; day 7, FIG. 3", "value": "trend to be reduced"},
      {"measurement": "IL-9 serum concentration", "setting": "[4]; day 7, FIG. 1h", "value": "increased in serum concentration"},
      {"measurement": "Median survival", "setting": "[5]; aged mice treated at week 75, 25 mg/kg i.p. 4 consecutive days, n=17, control 123.5 weeks", "value": 136, "unit": "weeks"},
      {"measurement": "average and maximum lifespan", "setting": "[5]; aged mice treated for 4 consecutive days, FIG. 1d", "value": "extension of both their average and maximum lifespan"},
      {"measurement": "antibody titer in serum", "setting": "[6]", "value": "increase in antibody titer; also recorded: approximately equal to that seen in young mice"},
      {"measurement": "Cdc42-GTP in aged bone marrow cells", "setting": "Cdc42; 24 hours after the last injection, aged mice", "value": "reduction of Cdc42-GTP in aged bone marrow cells to the level seen in young"},
      {"measurement": "decrease of Cdc42 activity", "setting": "Cdc42; with no regard to the age of mouse", "value": "approximately half"}
    ]}
  ]
}
